Measurements taken from ChEMBL document CHEMBL4342484, “Structure-Activity Relationship for the Oxadiazole Class of Antibacterials” (ACS Med Chem Lett, 2020).
Converted amounts (≈) assume the structure as drawn. The source made the active and inactive calls. No cut-off for these calls is given here.

Legend:
[1] = system: Staphylococcus aureus; experiment: Antibacterial activity against Staphylococcus aureus ATCC 29213 by broth microdilution method; format: functional
[2] = Plasma protein binding in human at […] incubated for 2 hrs by UPLC analysis; format: ADME, cell-free; conditions: read-out: PPB (converted)
[3] = system: HepG2; experiment: Cytotoxicity against human HepG2 cells assessed as reduction in cell viability by XTT assay; format: cell-based
[4] = Hemolytic activity in human RBC relative to control; format: ADME, cell-based, Erythrocyte; conditions: red blood cells (erythrocytes), read-out: Activity
[5] = system: Staphylococcus aureus; experiment: Antibacterial activity against Staphylococcus aureus ATCC 27660 by broth microdilution method; format: functional
[6] = system: Staphylococcus aureus; experiment: Antibacterial activity against Staphylococcus aureus N315 (NRS70) by broth microdilution method; format: functional
[7] = system: Staphylococcus aureus; experiment: Antibacterial activity against Staphylococcus aureus NRS100 (COL) by broth microdilution method; format: functional
[8] = system: Staphylococcus aureus; experiment: Antibacterial activity against Staphylococcus aureus NRS119 by broth microdilution method; format: functional
[9] = system: Staphylococcus aureus; experiment: Antibacterial activity against Staphylococcus aureus NRS120 by broth microdilution method; format: functional
[10] = system: Staphylococcus aureus; experiment: Antibacterial activity against vancomycin-resistant Staphylococcus aureus VRS1 clinical isolate by broth microdilution method; format: functional
[11] = system: Staphylococcus aureus; experiment: Antibacterial activity against vancomycin-resistant Staphylococcus aureus VRS2 clinical isolate by broth microdilution method; format: functional
[12] = system: Staphylococcus epidermidis; experiment: Antibacterial activity against Staphylococcus epidermidis ATCC 35547 by broth microdilution method; format: functional
[13] = system: Staphylococcus haemolyticus; experiment: Antibacterial activity against Staphylococcus haemolyticus ATCC 29970 by broth microdilution method; format: functional
[14] = system: Bacillus cereus; experiment: Antibacterial activity against Bacillus cereus ATCC 13061 by broth microdilution method; format: functional
[15] = system: Bacillus licheniformis; experiment: Antibacterial activity against Bacillus licheniformis ATCC 12759 by broth microdilution method; format: functional
[16] = system: Enterococcus faecalis; experiment: Antibacterial activity against Enterococcus faecalis ATCC 29212 by broth microdilution method; format: functional
[17] = system: Enterococcus faecalis; experiment: Antibacterial activity against vancomycin-susceptible Enterococcus faecalis 201 clinical isolate by broth microdilution method; format: functional
[18] = system: Enterococcus faecalis; experiment: Antibacterial activity against vancomycin-resistant Enterococcus faecalis 99 clinical isolate by broth microdilution method; format: functional
[19] = system: Enterococcus faecium; experiment: Antibacterial activity against vancomycin-susceptible Enterococcus faecium 119-39A clinical isolate by broth microdilution method; format: functional
[20] = system: Enterococcus faecium; experiment: Antibacterial activity against vancomycin-resistant Enterococcus faecium 106 clinical isolate by broth microdilution method; format: functional
[21] = system: Enterococcus faecium; experiment: Antibacterial activity against Enterococcus faecium NCTC 7171 by broth microdilution method; format: functional
[22] = AUC (0 to last) in ICR mouse at 20 mg/kg, iv measured for 24 hrs by UPLC analysis; format: ADME, organism-based; conditions: in vivo
[23] = AUC (0 to infinity) in ICR mouse at 20 mg/kg, iv measured for 24 hrs by UPLC analysis; format: ADME, organism-based; parameters: dose 20 mg/kg, time infinity, route intravenous; conditions: in vivo
[24] = Clearance in ICR mouse at 20 mg/kg, iv measured for 24 hrs by UPLC analysis; format: ADME, organism-based; conditions: in vivo
[25] = Volume of distribution in ICR mouse at 20 mg/kg, iv measured for 24 hrs by UPLC analysis; format: ADME, organism-based; conditions: in vivo
[26] = Distribution half life in ICR mouse at 20 mg/kg, iv measured for 24 hrs by UPLC analysis; format: ADME, organism-based; conditions: in vivo, read-out: alphat1/2 (converted)
[27] = Terminal half life in ICR mouse at 20 mg/kg, iv measured for 24 hrs by UPLC analysis; format: ADME, organism-based; conditions: in vivo, read-out: beta t1/2 (converted)
[28] = AUC (0 to last) in ICR mouse at 20 mg/kg, po administered as via gavage measured for 36 hrs by UPLC analysis; format: ADME, organism-based; conditions: in vivo
[29] = AUC (0 to infinity) in ICR mouse at 20 mg/kg, po administered as via gavage measured for 36 hrs by UPLC analysis; format: ADME, organism-based; parameters: dose 20 mg/kg, route oral, time infinity; conditions: in vivo
[30] = Cmax in ICR mouse at 20 mg/kg, po administered as via gavage measured for 36 hrs by UPLC analysis; format: ADME, organism-based; parameters: dose 20 mg/kg, route oral; conditions: in vivo
[31] = Tmax in ICR mouse at 20 mg/kg, po administered as via gavage measured for 36 hrs by UPLC analysis; format: ADME, organism-based; conditions: in vivo
[32] = Distribution half life in ICR mouse at 20 mg/kg, po administered as via gavage measured for 36 hrs by UPLC analysis; format: ADME, organism-based; conditions: in vivo, read-out: alphat1/2 (converted)
[33] = Terminal half life in ICR mouse at 20 mg/kg, po administered as via gavage measured for 36 hrs by UPLC analysis; format: ADME, organism-based; conditions: in vivo, read-out: beta t1/2 (converted)
[34] = Oral bioavailability in ICR mouse at 20 mg/kg administered as via gavage measured for 36 hrs by UPLC analysis; format: ADME, organism-based; conditions: in vivo
[35] = system: Staphylococcus aureus; experiment: Antibacterial activity against linezolid-sensitive Staphylococcus aureus NRS70 infected in mouse model of neutropenic thigh infection assessed as reduction in bacterial count at 40 mg/kg, po administered 1 hrs post infection and measured for 48 hrs; format: functional
[36] = system: Staphylococcus aureus; experiment: Antibacterial activity against linezolid-resistant Staphylococcus aureus NRS119 infected in mouse model of neutropenic thigh infection assessed as reduction in bacterial count at 40 mg/kg, po administered […]; format: functional
[37] = Drug level in mouse thigh infected with linezolid-sensitive Staphylococcus aureus NRS70 at 40 mg/kg, po administered 1 hrs post infection and measured for 48 hrs; format: ADME, organism-based; conditions: read-out: Drug uptake
[38] = Drug level in mouse thigh infected with linezolid-resistant Staphylococcus aureus NRS119 at 40 mg/kg, po administered 1 hrs post infection and measured for 48 hrs; format: ADME, organism-based; conditions: read-out: Drug uptake
[39] = system: Staphylococcus aureus; experiment: Antibacterial activity against Staphylococcus aureus ATCC 27660 infected in mouse model of peritonitis at 20 mg/kg, iv dosed at 30 mins and 7.5 hrs post infection and measured for 2 days

Fc1ccc(Oc2ccc(-c3noc(-c4ccc5[nH]ccc5c4)n3)cc2)cc1
MIC [1]: 1 to 2 µg/mL (≈ 2.69 to 5.39 µM) | fraction unbound at 2 h [2]: 0.012 | IC50 [3]: 37 µg/mL (≈ 99.6 µM) | hemolysis [4]: < 1% | MIC [5]: 2 to 4 µg/mL (≈ 5.39 to 10.8 µM) | MIC [6]: 1 µg/mL (≈ 2.69 µM) | MIC [7]: 2 µg/mL (≈ 5.39 µM) | MIC [8]: 1 to 2 µg/mL (≈ 2.69 to 5.39 µM) | MIC [9]: 2 µg/mL (≈ 5.39 µM) | MIC [10]: 1 µg/mL (≈ 2.69 µM) | MIC [11]: 1 µg/mL (≈ 2.69 µM) | MIC [12]: 1 µg/mL (≈ 2.69 µM) | MIC [13]: 2 µg/mL (≈ 5.39 µM) | MIC [14]: 4 µg/mL (≈ 10.8 µM) | MIC [15]: 2 µg/mL (≈ 5.39 µM) | MIC [16]: 4 µg/mL (≈ 10.8 µM) | MIC [17]: 4 µg/mL (≈ 10.8 µM) | MIC [18]: 4 µg/mL (≈ 10.8 µM) | MIC [19]: 1 µg/mL (≈ 2.69 µM) | MIC [20]: 1 µg/mL (≈ 2.69 µM) | MIC [21]: 1 µg/mL (≈ 2.69 µM) | AUClast [22]: 1790 uM.min/ml | AUC [23]: 2570 uM.min/ml | clearance [24]: 7.8 mL/min/kg | Vd [25]: 14.2 L/kg | half-life [26]: 0.4 h | half-life [27]: 21.1 h | AUClast [28]: 718 uM.min/ml | AUC [29]: 1040 uM.min/ml | Cmax [30]: 1000 ng/mL | Tmax [31]: 2.5 h | half-life [32]: 6.2 h | half-life [33]: 17 h | bioavailability [34]: 41% | Activity [35]: 1.1 log10CFU | Activity [36]: 1.5 log10CFU | concentration at 48 h [37]: 5800 ng/g | concentration at 48 h [38]: 6400 ng/g | Activity [39]: Active
